Each structure is given as a SMILES string. Converted amounts (≈) assume the structure as drawn.

Data set [1] relates to Staphylococcus aureus. The data set can be described thus: Relative hydrolysis rate (RHR) was evaluated against Staphylococcus aureus with the strain FS108. Type of data set: ADME, organism-based.
Data set [2] can be described thus: Relative Vmax was reported. It is filed as ADME.
The subject of data set [3] is Staphylococcus aureus. Description: Compound was evaluated for the antibacterial activity against Staphylococcus aureus with the strains beta-Lactamase-positive (LAC+)/ beta-Lactamase-negative (LAC-); 64/0.03. It is filed as functional.
Data set [4] has as its system Staphylococcus aureus. Description: Compound was evaluated for the antibacterial activity against Staphylococcus aureus with the strain 209P. Type of data set: functional.
For data set [5], the system named is Staphylococcus aureus. The data set can be described thus: Compound was evaluated for the antibacterial activity against Staphylococcus aureus with the strain beta-Lactamase-positive (LAC+)/beta-Lactamase-negative (LAC-); 2/1. Type of data set: functional.
Data set [6] is described as follows: Relative hydrolysis rate (RHR) was evaluated against K1 enzyme. It is filed as ADME.
The nature of data set [7]: Relative hydrolysis rate (RHR) was evaluated against RTEM enzyme. It is filed as ADME.
In data set [8] the test system is Escherichia coli. The data set can be described thus: Compound was evaluated for the relative Vmax against Escherichia coli with strain 609 (beta-Lactamase-positive (LAC+). It is filed as ADME, organism-based. The conditions noted are these: in vivo.
Data set [9] is described as follows: Compound was evaluated for the relative Vmax against RTEM enzyme. Type of data set: ADME.
Data set [10] relates to Escherichia coli. The data set can be described thus: Compound was evaluated for the antibacterial activity against Escherichia coli (RTEM- organism); 0.1/0.4. It is filed as functional.
Data set [11] concerns Escherichia coli. The data set can be described thus: cCompound was evaluated for the antibacterial activity against Escherichia coli (RTEM+ organism); 0.4/0.2. Type of data set: functional.
Data set [12] deals with Klebsiella aerogenes. The data set can be described thus: Compound was evaluated for the antibacterial activity against Klebsiella aerogenes with strain K1-; 0.8/0.8. Type of data set: functional.
Data set [13] concerns Klebsiella aerogenes. Description: Compound was evaluated for the antibacterial activity against Klebsiella aerogenes with strain K1; 100/>100. Type of data set: functional.
In data set [14] the test system is Escherichia coli. Description: Compound was evaluated for the antibacterial activity against Escherichia coli (RTEM+organism) at 10e4/10e6 colony forming units; 25/100. Type of data set: functional.
Data set [15] deals with Escherichia coli. The data set can be described thus: Compound was evaluated for the antibacterial activity against Escherichia coli (RTEM-organism) at 10e4/10e6 cfu; 0.2/0.2. It is filed as functional.
Data set [16] has as its system Escherichia coli. The data set can be described thus: Compound was evaluated for the antibacterial activity against Escherichia coli (RTEM+organism) at 10e4/10e6 cfu; 0.1/0.2. Type of data set: functional.
Data set [17] concerns Klebsiella aerogenes. The data set can be described thus: Compound was evaluated for the antibacterial activity against Klebsiella aerogenes with strain K1+ at 10e4/10e6 cfu; 6.3/>100. Type of data set: functional.
Data set [18] relates to Klebsiella aerogenes. The data set can be described thus: Compound was evaluated for the antibacterial activity against Klebsiella aerogenes with strain K1- at 10e4/10e6 cfu; <0.05/0.1. It is filed as functional.
For data set [19], the system named is Escherichia coli. Description: Compound was evaluated for the antibacterial activity against Escherichia coli (RTEM+organism) at 10e4/10e6 colony forming units; 0.8/3.1. It is filed as functional.
The test system of data set [20] is Escherichia coli. Description: Compound was evaluated for the antibacterial activity against Escherichia coli (RTEM-organism) at 10e4/10e6 cfu; 0.2/0.4. It is filed as functional.
For data set [21], the system named is Escherichia coli. Description: Compound was evaluated for the antibacterial activity against Escherichia coli (RTEM+organism) at 10e4/10e6 cfu; 0.1/0.4. It is filed as functional.
Data set [22] relates to Klebsiella aerogenes. Description: Compound was evaluated for the antibacterial activity against Klebsiella aerogenes with strain K1- at 10e4/10e6 cfu; 0.1/0.4. It is filed as functional.
The test system of data set [23] is Klebsiella aerogenes. Description: Compound was evaluated for the antibacterial activity against Klebsiella aerogenes with strain K1+ at 10e4/10e6 cfu; 0.2/0.8. Type of data set: functional.
Data set [24] concerns Escherichia coli. The data set can be described thus: cEscherichia coli with strain NIHJ (beta-Lactamase-negative (LAC-)). It is filed as functional.
In data set [25] the test system is Escherichia coli. The data set can be described thus: Compound was evaluated for the antibacterial activity against Escherichia coli (RTEM+organism). 10E6 colony forming units are observed. Type of data set: functional.
The test system of data set [26] is Escherichia coli. Description: Relative hydrolysis rate (RHR) was evaluated against Escherichia coli with the strain RTEM. Type of data set: ADME, organism-based.
Data set [27] concerns Escherichia coli. Description: Compound was evaluated for the antibacterial activity against Escherichia coli (RTEM+organism). 10e4/10e6 colony forming units are observed; 3.1/25. Type of data set: functional.
The test system of a further data set is Providencia rettgeri. Description: Compound was evaluated for the antibacterial activity against Providencia rettgeri with the strain beta-Lactamase-negative (LAC-). It is filed as functional.

For `CC1(C)S[C@@H]2[C@H](NC(=O)Cc3ccccc3)C(=O)N2[C@H]1C(=O)O` [PENICILLIN G], the RHR in the data set on Staphylococcus aureus [1] stood at 100. The same compound yielded an RVmax in [2] of 1. In addition, the MIC – broadly, the lowest concentration that inhibits growth of the organism – was 64 µg/mL (≈ 191 µM) in the data set on Staphylococcus aureus [3] and 0.065 µg/mL (≈ 0.194 µM) in the data set with Staphylococcus aureus [4].

Consider `COc1cccc(OC)c1C(=O)N[C@@H]1C(=O)N2C1SC(C)(C)C2C(=O)O` (some centres undefined), for which the RVmax in [2] is listed as 0.04. Besides, in the data set with Staphylococcus aureus [5], the lowest concentration to inhibit growth (MIC) was 2 µg/mL (≈ 5.26 µM).

Regarding `O=C(Cc1cccs1)N[C@@H]1C(=O)N2C(C(=O)[O-])=C(C[n+]3ccccc3)CS[C@H]12` [CEPHALORIDINE], the RHR in [6] and in data set [7] was 100 throughout. Further, the RVmax (with Escherichia coli [8]; in [9]) was 100 each time.

`C#C[C@@H]1[C@H](NC(=O)/C(=N/OC)c2csc(N)n2)C(=O)N1S(=O)(=O)[O-].[K+]`: the MIC against Escherichia coli [10] is 0.1 µg/mL; against Escherichia coli [11], 0.4 µg/mL; in the data set with Klebsiella aerogenes [12], 0.8 µg/mL; in the data set on Klebsiella aerogenes [13] it was over 100 µg/mL.

Consider `CC(C)O/N=C(\C(=O)N[C@H]1CN(S(=O)(=O)[O-])C1=O)c1csc(N)n1.[K+]`, for which the RHR in [7] stood at 7. Besides, the MIC against Escherichia coli [14] was 25 µg/mL.

In the case of `C=C[C@@H]1[C@H](NC(=O)/C(=N/OC)c2csc(N)n2)C(=O)N1S(=O)(=O)[O-].[K+]`, the MIC in the data set on Escherichia coli [15] is 0.2 µg/mL; against Escherichia coli [16] it was 0.1 µg/mL; against Klebsiella aerogenes [17], 6.3 µg/mL; against Klebsiella aerogenes [18], under 0.05 µg/mL.

With `CC(C)(O/N=C(\C(=O)N[C@H]1CN(S(=O)(=O)[O-])C1=O)c1csc(N)n1)C(=O)[O-].[K+].[K+]`, the RHR in data set [7] turned out to be 2.3. This compound gave an MIC in the data set on Escherichia coli [19] of 0.8 µg/mL.

Take `CC[C@@H]1[C@H](NC(=O)/C(=N/OC)c2csc(N)n2)C(=O)N1S(=O)(=O)[O-].[K+]`: the MIC in the data set with Escherichia coli [20] stood at 0.2 µg/mL; in the data set with Escherichia coli [21], 0.1 µg/mL; with Klebsiella aerogenes [22], 0.1 µg/mL; in the data set on Klebsiella aerogenes [23], 0.2 µg/mL.

In data set [7], `Cn1nnnc1SCC1=C(C(=O)O)N2C(=O)C(NC(=O)C(C(=O)O)c3ccc(O)cc3)C2SC1` (centres undefined) showed an RHR of 0.96. Further, the MIC in the data set on Escherichia coli [24] was 3.13 µg/mL (≈ 6.18 µM).

On to `CO/N=C(\C(=O)N[C@@H]1C(=O)N2C(C(=O)O)=C(COC(C)=O)C[S@@+]([O-])C12)c1csc(N)n1` (some centres undefined), for which the RHR in data set [7] stood at 160. Moreover, in the data set with Escherichia coli [25], the MIC was 1.6 µg/mL (≈ 3.39 µM).

Turning to `CO/N=C(\C(=O)N[C@H]1CN(S(=O)(=O)[O-])C1=O)c1csc(N)n1.[K+]`, the RHR with Escherichia coli [26] is 106; in data set [7], 12. The MIC was 3.1 µg/mL against Escherichia coli [27] and under 0.05 µg/mL against Providencia rettgeri.
